Laboratory results reported in the NIST ThermoML archive (doi:10.1021/acs.jced.8b00201).

Experiment: xn = mol fraction of the nth substance listed
Conditions: 100 kPa, Liquid; for viscosity: Concentric cylinders viscometry; for mass density: Vibrating tube method

CCCCCCCO [heptan-1-ol] + O=C1CCCCC1
Conditions	mass density [kg/m3]	viscosity [mPa·s]
293.15 K, x2 = 0	822.2	7.03
293.15 K, x2 = 0.0809	829.7	6.06
293.15 K, x2 = 0.1601	837.3	5.23
293.15 K, x2 = 0.2406	845.4	4.49
293.15 K, x2 = 0.3511	857.4	3.68
293.15 K, x2 = 0.4227	865.6	3.27
293.15 K, x2 = 0.5754	884.4	2.71
293.15 K, x2 = 0.6492	894.2	2.59
293.15 K, x2 = 0.7422	907.3	2.46
293.15 K, x2 = 0.8513	923.9	2.38
293.15 K, x2 = 0.9385	938.2	2.35
298.15 K, x2 = 0	818.7	5.92
298.15 K, x2 = 0.0809	826	5.15
298.15 K, x2 = 0.1601	833.5	4.46
298.15 K, x2 = 0.2406	841.4	3.89
298.15 K, x2 = 0.3511	853.1	3.22
298.15 K, x2 = 0.4227	861.2	2.83
298.15 K, x2 = 0.5754	879.6	2.39
298.15 K, x2 = 0.6492	889.3	2.29
298.15 K, x2 = 0.7422	902.2	2.19
298.15 K, x2 = 0.8513	918.5	2.12
298.15 K, x2 = 0.9385	932.6	2.09
303.15 K, x2 = 0	815.2	5.03
303.15 K, x2 = 0.0809	822.3	4.41
303.15 K, x2 = 0.1601	829.7	3.86
303.15 K, x2 = 0.2406	837.5	3.37
303.15 K, x2 = 0.3511	849	2.82
303.15 K, x2 = 0.4227	857	2.51
303.15 K, x2 = 0.5754	875.2	2.11
303.15 K, x2 = 0.6492	884.8	2.04
303.15 K, x2 = 0.7422	897.6	1.97
303.15 K, x2 = 0.8513	913.8	1.94
303.15 K, x2 = 0.9385	927.7	1.93
308.15 K, x2 = 0	811.6	4.3
308.15 K, x2 = 0.0809	818.7	3.78
308.15 K, x2 = 0.1601	825.9	3.32
308.15 K, x2 = 0.2406	833.6	2.93
308.15 K, x2 = 0.3511	845	2.49
308.15 K, x2 = 0.4227	852.8	2.26
308.15 K, x2 = 0.5754	870.9	1.93
308.15 K, x2 = 0.6492	880.4	1.85
308.15 K, x2 = 0.7422	893.1	1.78
308.15 K, x2 = 0.8513	909.2	1.75
308.15 K, x2 = 0.9385	923.1	1.76
313.15 K, x2 = 0	808	3.71
313.15 K, x2 = 0.0809	814.9	3.24
313.15 K, x2 = 0.1601	822.1	2.86
313.15 K, x2 = 0.2406	829.7	2.54
313.15 K, x2 = 0.3511	840.9	2.19
313.15 K, x2 = 0.4227	848.7	2.03
313.15 K, x2 = 0.5754	866.6	1.77
313.15 K, x2 = 0.6492	876	1.72
313.15 K, x2 = 0.7422	888.6	1.65
313.15 K, x2 = 0.8513	904.5	1.62
313.15 K, x2 = 0.9385	918.4	1.6
318.15 K, x2 = 0	804.4	3.21
318.15 K, x2 = 0.0809	811.2	2.83
318.15 K, x2 = 0.1601	818.3	2.5
318.15 K, x2 = 0.2406	825.8	2.23
318.15 K, x2 = 0.3511	836.9	1.95
318.15 K, x2 = 0.4227	844.6	1.82
318.15 K, x2 = 0.5754	862.3	1.61
318.15 K, x2 = 0.6492	871.7	1.57
318.15 K, x2 = 0.7422	884.2	1.51
318.15 K, x2 = 0.8513	900.2	1.49
318.15 K, x2 = 0.9385	914.1	1.47
323.15 K, x2 = 0	800.7	2.79
323.15 K, x2 = 0.0809	807.5	2.49
323.15 K, x2 = 0.1601	814.5	2.23
323.15 K, x2 = 0.2406	821.9	2.01
323.15 K, x2 = 0.3511	833	1.77
323.15 K, x2 = 0.4227	840.7	1.64
323.15 K, x2 = 0.5754	858.4	1.45
323.15 K, x2 = 0.6492	867.7	1.4
323.15 K, x2 = 0.7422	880.3	1.35
323.15 K, x2 = 0.8513	896.4	1.33
323.15 K, x2 = 0.9385	910.2	1.33
